{"source": "patent US20130011462A1", "about": "“MELT EXTRUDED NICOTINE THIN STRIPS” (Novartis AG, priority 2009, published 2013)", "key": {"[1]": {"procedure": "The sample weight was monitored for 20 minutes at probable extrusion temperatures of 50, 55 and 60° C. This duration is longer than expected process time for small batches including hold time in hoppers."}, "[2]": {"procedure": "During thermo-gravimetric analysis (TGA), the weight of a sample is measured very accurately as the sample is undergoing a temperature program (usually a gradual increase in temperature). Changes in the sample that result in weight differences will be detected, and can be correlated to temperature. This technique was used to investigate the onset temperatures of dehydration and degradation of the nicotine salt.\nTable 4 details the temperature program for this study. The sample was heated from 30 to 950° C. under nitrogen (inert gas) or air.", "remark": "listed apart in the source"}}, "note": "Where two headings read alike, the source gives them in different places.", "data": [{"compound": "CN1CCCC1c1cccnc1.O.O.O=C(O)C(O)C(O)C(=O)O", "note": "(centres unmarked) [Nicotine bitartrate dihydrate]", "values": [{"measurement": "weight loss after isothermal hold", "setting": "[1]; 20 minute hold at 50 °C", "value": 0.497, "unit": "%"}, {"measurement": "weight loss after isothermal hold", "setting": "[1]; 20 minute hold at 55 °C", "value": 0.678, "unit": "%"}, {"measurement": "weight loss after isothermal hold", "setting": "[1]; 20 minute hold at 60 °C", "value": 1.147, "unit": "%"}, {"measurement": "First Event Onset Temperature", "setting": "[2]; Air purged sample", "value": 73.93, "unit": "°C"}, {"measurement": "Second Event Onset Temperature", "setting": "[2]; Air purged sample", "value": 190.23, "unit": "°C"}, {"measurement": "First Event Onset Temperature", "setting": "[2]; Nitrogen purged sample", "value": 72.54, "unit": "°C"}, {"measurement": "Second Event Onset Temperature", "setting": "[2]; Nitrogen purged sample", "value": 190.78, "unit": "°C"}, {"measurement": "first TGA event inflection", "setting": "[2]; scan 30 to 950 °C", "value": 82, "unit": "°C"}, {"measurement": "first TGA event onset", "setting": "[2]; scan 30 to 950 °C", "value": 73, "unit": "°C"}, {"measurement": "second TGA event inflection", "setting": "[2]; scan 30 to 950 °C", "value": 203, "unit": "°C"}, {"measurement": "weight loss, first TGA event", "setting": "[2]; scan 30 to 950 °C", "value": "about 4%"}]}]}
